From patent US20240009122A1, “Small Molecule Formulation” (Dialectic Therapeutics, Inc., priority 2020, published 2024) come the findings set out here.

This series can be described thus: Solubility of Compound 1 (statement). It counts as physicochemical. From the text:
While Compound 1 is an example of a small molecule with a number of polar functional groups. […] These organic polar solvents, however, are not typically pharmaceutically acceptable for use in drug formulation.

With `Cc1ncsc1-c1ccc([C@H](C)NC(=O)[C@@H]2C[C@@H](O)CC2C(=O)[C@@H](NC(=O)CCCCCC(=O)N2CCN(CC[C@H](CSc3ccccc3)Nc3ccc(S(=O)(=O)NC(=O)c4ccc(N5CCN(CC6=C(c7ccc(Cl)cc7)CCC(C)(C)C6)CC5)cc4)cc3S(=O)(=O)C(F)(F)F)CC2)C(C)(C)C)cc1` (some centres unmarked) [Compound 1], the “Solubility in organic polar solvents” value was “sufficiently soluble” and the “Solubility in water or water based solvent mixtures” value is reported as “not sufficiently soluble”.
